The test system of the experiment is CEM cells HIV-1 protection, formazan growth assay. Kind of experiment: NCI AIDS Antiviral Assay. The settings on record: for IC50: measured here: growth of uninfected CEM cells. The method, boiled down:
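Human CEM cells, uninfected and HIV-1-infected, received five drug concentrations, and growth was read by soluble formazan assay. Compounds giving at least 50% protection were retested; reproducible 100% protection defined confirmed active.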

The text below walks through data of PubChem BioAssay AID179 (DTP/NCI, 2004).

Several values for one entry are separate records, joined by “and”; a condition that tells them apart may be missing. Equal entries are not always repeated. Activity calls are given as the source filed them.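 Rule for the calls: active = compounds giving half or more protection of infected cells from virus-caused growth loss, again on retest; inactive = the rest.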

On to `CCOc1ccccc1N=Nc1c(-c2ccccc2)nn(C(=O)CC(=O)Nc2cccc(C)c2)c1-c1ccccc1`, for which the EC50 is more than 25.1 µM and the IC50 is more than 25.1 µM.
Regarding `COc1cccc(C2SCC(=O)N2c2ccc(-c3ccc(-n4c(-c5ccccc5)nc5ccccc5c4=O)cc3)cc2)c1OC` (centres undefined), the EC50 was more than 200 µM and the IC50 worked out at 63.1 µM.
Consider `N#CC12CCC1C1CCCCC12N1CCSCC1` (centres undefined), for which the result was inactive.
With `CCO/C=N/C1=C(C#N)C(c2ccc(Cl)cc2)c2c(-c3ccccc3)nn(-c3ccccc3)c2O1` (centres undefined), the EC50 is more than 20 µM and the IC50 worked out at 17 µM.
Consider `O=C1/C(=C/c2ccc(Br)cc2)CCC/C1=C\c1ccc(Br)cc1`, for which the EC50 was more than 6.31 µM and the IC50 was more than 6.31 µM.
Consider `N#CC1=C(N2CCCC2)NC(=O)CC1=O`, for which the EC50 was more than 200 µM and the half-inhibitory concentration (IC50) is more than 200 µM.
Turning to `Nc1n[nH]c(N)n1`, the EC50 is more than 2510 µM; the IC50 was > 200 µM and 282 µM.
Consider `c1cc2sc3ccc(OCCCN4CCCCC4)cc3c2cc1OCCCN1CCCCC1`, for which the EC50 was more than 93.3 µM and the IC50 stood at 1.58 µM.
Take `CN1C(=O)CC2C(=O)N(Cc3ccccc3)C(=O)C2C1=O` (centres undefined): the EC50 was more than 347 µM and the IC50 was more than 347 µM.
Turning to `Cc1ccc(-c2c(C#N)c(-c3ccccc3)n(NS(=O)(=O)c3ccc(C)cc3)c(=O)c2C#N)cc1`, the EC50 was more than 200 µM and the concentration for half-maximal inhibition (IC50) came to 67.6 µM.
In the same order, the values of `COc1ccc(C(c2c(O)c3ccccc3n(-c3ccccc3)c2=O)c2c(O)c3ccccc3n(-c3ccccc3)c2=O)cc1` are more than 8.71 µM and more than 8.71 µM.
As to `COc1ccc(OC)c(CNc2ccc(C(=O)O)cc2)c1`, the EC50 was more than 200 µM and the IC50 was more than 200 µM.
Regarding `CCCCCCC(N)(CCCCCC)C(=O)Nn1c(C)ccc1C`, the EC50 is more than 200 µM and the half-inhibitory concentration (IC50) worked out at 16.2 µM.
With `CCN(CC)CC(=O)Nc1cc(C)ccc1Cl`, the EC50 was more than 200 µM and the IC50 was more than 200 µM.
For `Cn1c(=O)c2[nH]c(SSc3nc4c([nH]3)c(=O)n(C)c(=O)n4C)nc2n(C)c1=O`, the EC50 is 35.5 µM and the IC50 is 162 µM.
In the case of `Clc1cc(OCC23CC4CC(CC(C4)C2)C3)nc(OCC23CC4CC(CC(C4)C2)C3)n1`, the EC50 was more than 100 µM and the concentration for half-maximal inhibition (IC50) was more than 100 µM.
For `N/N=C(/C(=O)Nc1cccc(Cl)c1)C(C(=O)c1ccc(O)cc1O)C1OC(=O)c2ccccc21` (centres undefined), the EC50 was more than 525 µM and the IC50 came out at 87.1 µM.
For the compound `C/C(CC(=O)Nc1ccc(Cl)c(Cl)c1)=N/NC(=O)C[n+]1ccccc1`, the EC50 is more than 162 µM and the half-maximal inhibitory concentration (IC50) is more than 162 µM.
For `Cc1nc2c(nc1C)C(=O)C(Cl)=C(N)C2=O`, the result was inactive.
As to `CCOC(=O)/C=C/c1ccccc1Cl`, the EC50 is more than 33.9 µM and the 50% inhibitory concentration (IC50) was more than 33.9 µM.
As for `COc1cc(/C=C2/SC(=S)NC2=O)cc(OC)c1O`, the outcome was inactive.
The same measure, in the same setting: in the case of `COC(=O)C1=C(C(=O)OC)SC(=Cc2ccccc2C=C2SC(C(=O)OC)=C(C(=O)OC)S2)S1` it was “inactive”.
Turning to `CCCC(C)C(N)=Nc1ccc(Cl)c(Cl)c1` (centres undefined), the EC50 was more than 200 µM and the IC50 came to 45.7 µM.
On to `CC(C)c1ccccc1NC(=O)CCc1n[nH]c(=S)o1`, for which the EC50 was more than 324 µM and the IC50 was more than 324 µM.
In the case of `O=c1c2ccccc2c(=O)n2n1C1CCC2C1`, the EC50 was more than 1100 µM and the IC50 is more than 1100 µM.
For `CC(C)CCC[C@@H](C)[C@H]1CC[C@H]2[C@@H]3CC[C@H]4C[C@@H](CCCC(c5ccc(O)c(C(=O)O)c5)c5ccc(O)c(C(=O)O)c5)CC[C@]4(C)[C@H]3CC[C@]12C`, the EC50 is 64.6 µM and the IC50 was more than 100 µM.
In the same order, the values of `C[Si](C)(OCCS(=O)(=O)O)C1(Cc2cccc3ccccc23)S(=O)(=O)OCCOS1(=O)=O` are more than 200 µM and 107 µM.
For `C1CCN2CC3CC(CN4CCCCC34)C2C1` (centres undefined), the EC50 was more than 759 µM and the 50% inhibitory concentration (IC50) is more than 759 µM.
Consider `O=[N+]([O-])c1nccn1CC(O)c1ccccc1` (centres undefined), for which the EC50 was more than 1070 µM and the 50% inhibitory concentration (IC50) was more than 1070 µM.
With `COC(=O)C12N=NN(c3ccccc3)C1(C(=O)OC)C1CCC2C1` (centres undefined), the EC50 is more than 200 µM and the half-maximal inhibitory concentration (IC50) is more than 200 µM.
Turning to `COc1cc(C2c3cc4c(cc3OC(N3CCCCC3)C2C)OCO4)cc(OC)c1OC` (centres undefined), the EC50 was more than 50.1 µM and the IC50 was determined as 0.398 µM.
Turning to `COc1cc2c(cc1O)C(C)Cc1cc3c(cc1N(C)CC2)OCO3` (centres undefined), the EC50 is more than 117 µM and the 50% inhibitory concentration (IC50) turned out to be 2.24 µM.
In the same order, the values of `O=C(CC1C(=O)Nc2ccccc2S1(=O)=O)Nc1ccc(Cl)cc1` (centres undefined) are more than 5.5 µM and more than 5.5 µM.
With `CC(=O)N1C(OCc2ccccc2)CCN1c1ccccc1` (centres undefined), the EC50 was more than 200 µM and the IC50 was more than 200 µM.
As to `Cc1c(S(=O)c2cc(C(C)(C)C)c(O)c(CN3CCCC3)c2C)cc(C(C)(C)C)c(O)c1CN1CCCC1`, the EC50 is more than 200 µM and the IC50 was determined as 13.5 µM.
Turning to `O=S(=O)(SSS(=O)(=O)c1ccccc1)c1ccccc1`, the EC50 was more than 75.9 µM and the half-inhibitory concentration (IC50) was more than 75.9 µM.
On to `Brc1ccc(-c2cc(-c3ccc4c(c3)OCO4)c(-c3cccs3)n2Cc2ccccc2)cc1`, for which the EC50 is more than 200 µM and the IC50 is more than 200 µM.
On to `CC(SSC(C)N1C(=O)c2ccccc2C1=O)N1C(=O)c2ccccc2C1=O` (centres undefined), for which the EC50 is more than 100 µM and the half-inhibitory concentration (IC50) is more than 100 µM.
Take `c1ccc2[nH]c(-c3nc4ccccc4s3)nc2c1`: the EC50 was more than 15.1 µM and the IC50 came to 5.37 µM.
Turning to `CCOC(=O)C[C@](C)(O)C1CCCN1` (some centres undefined), the result was inactive.
For the compound `COc1ccccc1S(=O)Nc1ccccc1` (centres undefined), the EC50 was more than 200 µM and the 50% inhibitory concentration (IC50) is more than 200 µM.
In the case of `[N-]=[N+]=Nc1ccc2c(c1)Sc1ccccc1N2CCCCN1CCN(Cc2ccc(C(=O)c3ccc(CSCC(N)C(=O)O)cc3)cc2)CC1` (centres undefined), the EC50 was more than 200 µM and the IC50 was 32.4 µM.
As for `C=CCOC(OCC=C)/C(Br)=C/C`, the outcome was inactive.
As to `Cc1ccccc1NC(=O)C(=O)CC(=O)c1ccc([N+](=O)[O-])cc1`, the EC50 was more than 8.32 µM and the IC50 is more than 8.32 µM.
In the case of `COC(=O)c1cc(C(=CCCCCO)c2cc(Cl)c(OC)c(C(=O)OC)c2)cc(Cl)c1OC`, the EC50 was more than 200 µM and the IC50 came to 23.4 µM.
As for `COP(=O)(OC)/C(=C\c1cn(C(c2ccccc2)(c2ccccc2)c2ccccc2)cn1)NC(C)=O`, the EC50 was more than 200 µM and the 50% inhibitory concentration (IC50) is 83.2 µM.
Turning to `Oc1ccccc1C1SC(c2ccccc2O)SC(c2ccccc2O)S1` (centres undefined), the EC50 was more than 200 µM and the IC50 was found to be 11.5 µM.
Take `Cc1cc2c(=O)c3ccc(Cl)cc3[nH]c2c(C(=O)O)c1C`: the outcome was inactive.
`O=C1C(CN(Cc2ccccc2)Cc2ccccc2)CCCC1CN(Cc1ccccc1)Cc1ccccc1` (centres undefined): the EC50 is more than 26.3 µM, the result was inactive and the IC50 was more than 26.3 µM.
With `O=C1c2ccccc2-c2ccccc2C(=O)C1(Br)Br`, the result was inactive.
Take `CC1CC2=C(S(=O)(=O)c3ccccc3)CC(S(=O)(=O)c3ccccc3)(S(=O)(=O)c3ccccc3)CC21` (centres undefined): the EC50 was more than 50.1 µM and the IC50 was more than 50.1 µM.
Take `O=C(C=Nc1ccccc1S)c1cccs1`: the EC50 was more than 5.89 µM and the half-maximal inhibitory concentration (IC50) is more than 5.89 µM.
In the case of `Clc1nc(Nc2nc3ccccc3[nH]2)nc(Cl)c1Cc1ccccc1`, the outcome was inactive.
Turning to `CSc1n[nH]c(NC(=O)c2ccccc2CS)n1`, the EC50 is more than 64.6 µM and the IC50 is more than 64.6 µM.
On to `O=[N+]([O-])c1ccc(C(Nc2ccccc2)P(c2ccccc2)c2ccccc2)cc1` (centres undefined), for which the EC50 was more than 200 µM and the IC50 is 43.7 µM.
With `CCN(CC)CCCC(C)Nc1ccnc2cc(F)ccc12` (centres undefined) (tested in a mixture with another compound), the EC50 was more than 200 µM and the 50% inhibitory concentration (IC50) is more than 200 µM.
For the compound `CC(C)=CCS(=O)c1ccccc1NC1=CC(=O)CC(C)(C)C1` (centres undefined), the outcome was inactive.
For the compound `Clc1ccc2nncc(N3CC3)c2c1`, the result was inactive.
For `CC1(C)C2CC[C@]3(C)C(C(=O)C=C4[C@@H]5C[C@@](C)(C(=O)O)CC[C@]5(C)CCC43C)[C@@]2(C)CC[C@@H]1OC1OC(C(=O)O)C(O)C(O)C1OC1OC(C(=O)O)C(O)C(O)C1O` (some centres undefined) (tested in a mixture with another compound), the outcome was inactive.
Take `CCc1c(C)c2cc(N)ccc2[nH]c1=O`: the EC50 is more than 200 µM and the 50% inhibitory concentration (IC50) is 29.5 µM.
Regarding `Cn1c2ccccc2c2nn3cnnc3nc21`, the EC50 is more than 32.4 µM and the half-maximal inhibitory concentration (IC50) is more than 32.4 µM.
Regarding `O=C(ON(Cc1ccccc1)C(=O)C1C=CC=C1)C1=CCC=C1`, the EC50 is more than 17 µM and the concentration for half-maximal inhibition (IC50) was more than 17 µM.
For the compound `N#CC(C#N)=C1SC(=Nc2ccccc2)C(=Nc2ccccc2)N1c1ccccc1`, the EC50 was more than 200 µM and the IC50 stood at 1 µM.
In the same order, the values of `CCOC(C)C(/C=N/NC(N)=S)=NNC(N)=S` (centres undefined) are more than 20 µM and 1.86 µM.
In the same order, the values of `CC(=O)Nc1ccc(C2C(C(=O)Nc3ccccc3)=C(C)NC(C)=C2C(=O)Nc2ccccc2)cc1` are more than 74.1 µM and more than 74.1 µM.
In the same order, the values of `N#C/C(=C\c1ccccc1F)C(=O)O` are more than 676 µM and 302 µM.
Turning to `O=C(Cc1ccccc1)NNc1nc(NNC(=O)c2ccncc2)nc(Nc2cccc(Cl)c2)n1`, the EC50 is more than 200 µM and the 50% inhibitory concentration (IC50) was more than 200 µM.
With `COc1cc(C(C)c2cc3c(cc2OCCO)OCO3)cc(OC)c1OC` (centres undefined), the EC50 is more than 347 µM and the IC50 turned out to be 0.447 µM.
As to `CC(=O)[CH-]C(C)=O.CC(=O)[CH-]C(C)=O.COc1cc2cc(C(=O)N3CC(CCl)c4ccc(NCCN)cc43)[nH]c2c(OC)c1OC.[Cr+5].[O-][Cl+3]([O-])([O-])[O-]` (centres undefined), the EC50 was more than 1 µM and the concentration for half-maximal inhibition (IC50) is 0.479 µM.
In the case of `O=S(=O)(F)c1ccc(Cl)cc1C[P+](c1ccccc1)(c1ccccc1)c1ccccc1`, the EC50 is more than 200 µM and the concentration for half-maximal inhibition (IC50) came out at 87.1 µM.
